Legend:
[1] = target: T1, cardiac myofibrils (myosin ATPase); test: Cardiac Myofibril ATPase Assay (counter screen); format: biochemical; conditions: myofibrils 1.0 mg/mL, KCl omitted
T1 construct: frozen myofibril pellets obtained from cardiac tissue; from tissue
Outline: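 Frozen cardiac myofibrils at 1.0 mg/mL final, KCl omitted, in a PK-LDH coupled ATPase assay; ADP production tracked as NADH loss by absorbance at 340 nm. Inhibition taken as reduced rate relative to vehicle controls, with IC50 derived.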

[2] = target: skeletal myofibrils (myosin ATPase); test: Skeletal Myofibril ATPase Assay; format: biochemical
Outline: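 Skeletal myofibril ATPase measured by PK-LDH coupled NADH depletion, absorbance 340 nm read every 1.5-2 min over 45 min. Max−min rate normalized to 1% DMSO vehicle as 100%; IC50 from four-parameter logistic fit with bottom ≥0. Cardiac myofibrils used as counter-screen.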

[3] = test system: embryos from zebrafish model of DMD; conditions: Li and Amer, PLoSONE, 2015; cited from earlier work

T1 sequence (P12883 whole entry): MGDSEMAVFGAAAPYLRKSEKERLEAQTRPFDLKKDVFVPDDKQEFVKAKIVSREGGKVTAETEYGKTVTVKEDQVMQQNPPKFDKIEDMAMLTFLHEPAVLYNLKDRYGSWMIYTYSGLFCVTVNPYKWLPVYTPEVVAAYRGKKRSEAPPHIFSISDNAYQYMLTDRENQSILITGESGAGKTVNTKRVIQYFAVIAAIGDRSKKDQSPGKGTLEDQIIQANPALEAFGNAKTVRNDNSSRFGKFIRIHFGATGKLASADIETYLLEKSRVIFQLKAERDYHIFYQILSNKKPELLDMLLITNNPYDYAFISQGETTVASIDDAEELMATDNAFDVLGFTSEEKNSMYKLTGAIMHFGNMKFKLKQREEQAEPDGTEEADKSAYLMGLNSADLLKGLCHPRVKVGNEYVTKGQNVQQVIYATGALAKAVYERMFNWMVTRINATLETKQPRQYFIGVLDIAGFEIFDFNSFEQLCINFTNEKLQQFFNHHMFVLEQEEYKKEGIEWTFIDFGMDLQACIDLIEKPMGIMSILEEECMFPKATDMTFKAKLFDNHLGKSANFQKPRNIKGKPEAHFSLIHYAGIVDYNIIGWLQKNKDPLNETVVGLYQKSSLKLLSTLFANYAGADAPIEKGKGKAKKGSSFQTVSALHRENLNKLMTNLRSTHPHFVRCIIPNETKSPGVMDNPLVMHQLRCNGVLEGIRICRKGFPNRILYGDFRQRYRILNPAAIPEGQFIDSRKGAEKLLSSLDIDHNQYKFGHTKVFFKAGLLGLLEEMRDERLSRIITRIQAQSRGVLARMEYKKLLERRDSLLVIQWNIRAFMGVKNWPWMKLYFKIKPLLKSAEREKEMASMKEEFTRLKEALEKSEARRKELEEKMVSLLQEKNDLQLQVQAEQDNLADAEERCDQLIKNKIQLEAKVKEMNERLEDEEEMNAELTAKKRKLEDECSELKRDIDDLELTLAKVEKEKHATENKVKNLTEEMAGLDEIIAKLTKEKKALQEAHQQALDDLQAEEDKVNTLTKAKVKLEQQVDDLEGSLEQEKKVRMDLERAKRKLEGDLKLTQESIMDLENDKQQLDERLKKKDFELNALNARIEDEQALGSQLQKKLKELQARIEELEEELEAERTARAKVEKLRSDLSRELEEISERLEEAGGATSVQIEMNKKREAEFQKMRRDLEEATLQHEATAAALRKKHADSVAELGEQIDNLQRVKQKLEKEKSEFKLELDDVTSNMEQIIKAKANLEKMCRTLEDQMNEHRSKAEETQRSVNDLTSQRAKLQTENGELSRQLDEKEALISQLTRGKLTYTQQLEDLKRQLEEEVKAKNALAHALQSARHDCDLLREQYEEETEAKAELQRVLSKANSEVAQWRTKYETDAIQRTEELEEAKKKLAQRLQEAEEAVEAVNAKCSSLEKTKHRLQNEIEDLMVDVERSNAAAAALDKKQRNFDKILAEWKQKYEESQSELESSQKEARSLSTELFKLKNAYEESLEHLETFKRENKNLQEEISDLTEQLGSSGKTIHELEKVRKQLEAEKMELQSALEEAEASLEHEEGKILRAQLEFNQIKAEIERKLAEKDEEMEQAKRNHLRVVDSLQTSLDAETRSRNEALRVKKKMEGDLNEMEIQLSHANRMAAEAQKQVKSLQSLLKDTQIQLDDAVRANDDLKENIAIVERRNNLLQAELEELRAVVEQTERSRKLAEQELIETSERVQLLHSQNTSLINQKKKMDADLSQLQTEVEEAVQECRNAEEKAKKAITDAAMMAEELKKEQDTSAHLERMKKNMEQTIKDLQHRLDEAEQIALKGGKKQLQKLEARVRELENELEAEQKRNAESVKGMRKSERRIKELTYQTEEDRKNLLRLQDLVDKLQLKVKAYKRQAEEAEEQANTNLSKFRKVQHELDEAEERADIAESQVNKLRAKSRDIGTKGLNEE
T1 sequence (P08590 whole entry partner): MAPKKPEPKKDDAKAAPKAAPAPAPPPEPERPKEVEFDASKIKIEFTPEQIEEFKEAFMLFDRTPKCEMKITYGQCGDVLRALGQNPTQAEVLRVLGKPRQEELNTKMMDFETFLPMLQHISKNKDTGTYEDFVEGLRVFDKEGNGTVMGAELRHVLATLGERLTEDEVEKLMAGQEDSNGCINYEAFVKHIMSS
T1 sequence (P10916 whole entry partner): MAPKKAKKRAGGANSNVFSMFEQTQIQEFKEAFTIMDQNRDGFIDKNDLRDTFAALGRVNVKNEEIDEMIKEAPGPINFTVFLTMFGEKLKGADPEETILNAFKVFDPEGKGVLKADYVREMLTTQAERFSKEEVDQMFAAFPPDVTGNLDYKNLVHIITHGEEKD

SMILES | IC50 ([1]; Table 5A) [µM] | IC50 ([2]; Table 4A) [µM] | IC50 ([1]; Table 5C) [µM] | IC50 ([2]; Table 4C) [µM] | further results
O=C(Cn1nc(-c2ccc(OCC(F)(F)F)cc2)ccc1=O)NCc1ccncc1Cl [II-25, N-((3-chloropyridin-4-yl)methyl)-2-(6-oxo-3-(4-(2,2,2-trifluoroethoxy)phenyl)pyridazin-1(6H)-yl)acetamide] | – | – | – | – | IC50 ([1]; Table 5B): > 100 µM; IC50 ([2]; Table 4B): > 100 µM
CCNC(=O)Cn1nc(-c2ccc(N3CCC34COC4)nc2)ccc1=O [Compound I-19, 2-(3-(6-(6-oxa-1-azaspiro[3.3]heptan-1-yl)pyridin-3-yl)-6-oxopyridazin-1(6H)-yl)-N-ethylacetamide] | > 100 | 10 to 100 | – | – | –
O=C(Cn1nc(-c2ccc(OCC(F)(F)F)cc2)ccc1=O)N1CC(c2ccccc2)C1 [II-22, 2-(2-oxo-2-(3-phenylazetidin-1-yl)ethyl)-6-(4-(2,2,2-trifluoroethoxy)phenyl)pyridazin-3(2H)-one] | – | – | – | – | IC50 ([1]; Table 5B): > 100 µM; IC50 ([2]; Table 4B): < 10 µM
O=C(Cn1nc(-c2ccc(OC(F)F)cc2)ccc1=O)NCC(F)F [II-15, N-(2,2-difluoroethyl)-2-(3-(4-(difluoromethoxy)phenyl)-6-oxopyridazin-1(6H)-yl)acetamide] | – | – | – | – | IC50 ([1]; Table 5B): > 100 µM; IC50 ([2]; Table 4B): 10 to 100 µM
O=C(Cn1nc(-c2ccccc2)ccc1=O)Nc1ccccc1F [IIIc-66, N-(2-fluorophenyl)-2-(6-oxo-3-phenylpyridazin-1(6H)-yl)acetamide] | – | – | > 100 | > 100 | –
CCNC(=O)Cn1nc(-c2cnc(Oc3ccc(Cl)cc3)nc2)ccc1=O [Compound I-78, 2-(3-(2-(4-chlorophenoxy)pyrimidin-5-yl)-6-oxopyridazin-1(6H)-yl)-N-ethylacetamide] | > 100 | 10 to 100 | – | – | –
CCNC(=O)Cn1nc(-c2ccc(N3CC(OC(F)F)C3)nc2)ccc1=O [Compound I-55, 2-(3-(6-(3-(difluoromethoxy)azetidin-1-yl)pyridin-3-yl)-6-oxopyridazin-1(6H)-yl)-N-ethylacetamide] | > 100 | 10 to 100 | – | – | –
O=C(Cn1nc(-c2cnc(OCC(F)(F)F)nc2)ccc1=O)NC1CCC1 [Compound I-71, N-cyclobutyl-2-(6-oxo-3-(2-(2,2,2-trifluoroethoxy)pyrimidin-5-yl)pyridazin-1(6H)-yl)acetamide] | > 100 | < 10 | – | – | –
CCNC(=O)Cn1nc(-c2ccc(NC3COC3)nc2)ccc1=O [Compound I-44, N-ethyl-2-(3-(6-(oxetan-3-ylamino)pyridin-3-yl)-6-oxopyridazin-1(6H)-yl)acetamide] | > 100 | < 10 | – | – | –
COc1ccc(-c2ccc(=O)n(CC(=O)NCc3cnccn3)n2)cc1 [IIIa-28, 2-(3-(4-methoxyphenyl)-6-oxopyridazin-1(6H)-yl)-N-(pyrazin-2-ylmethyl)acetamide] | – | – | > 100 | > 100 | –
CC(C)NC(=O)Cn1nc(-c2ccc(Br)cc2)ccc1=O [IIIc-40, 2-(3-(4-bromophenyl)-6-oxopyridazin-1(6H)-yl)-N-isopropylacetamide] | – | – | > 100 | 10 to 100 | –
COc1ccc(-c2ccc(=O)n(CC(=O)Nc3ccc(C(C)C)cc3)n2)cc1 [IIIb-56, N-(4-isopropylphenyl)-2-(3-(4-methoxyphenyl)-6-oxopyridazin-1(6H)-yl)acetamide] | – | – | > 100 | > 100 | –
O=C(Cn1nc(-c2cnc(OCCOC(F)(F)F)nc2)ccc1=O)NC1CCC1 [Compound I-72, N-cyclobutyl-2-(6-oxo-3-(2-(2-(trifluoromethoxy)ethoxy)pyrimidin-5-yl)pyridazin-1(6H)-yl)acetamide] | > 100 | < 10 | – | – | –
O=C(Cn1nc(-c2ccc(F)cc2)ccc1=O)NCCc1c[nH]c2ccccc12 [IIIc-44, N-(2-(1H-indol-3-yl)ethyl)-2-(3-(4-fluorophenyl)-6-oxopyridazin-1(6H)-yl)acetamide] | – | – | > 100 | 10 to 100 | –
COc1ccc(-c2ccc(=O)n(CC(=O)NCc3cnoc3)n2)cc1 [IIIa-31, N-(isoxazol-4-ylmethyl)-2-(3-(4-methoxyphenyl)-6-oxopyridazin-1(6H)-yl)acetamide] | – | – | > 100 | > 100 | –
COc1ccc(-c2ccc(=O)n(CC(=O)NC3CCCCC3)n2)c(F)c1 [IIIb-60, N-cyclohexyl-2-(3-(2-fluoro-4-methoxyphenyl)-6-oxopyridazin-1(6H)-yl)acetamide] | – | – | > 100 | > 100 | –
O=C(Cn1nc(-c2ccc(OC(F)F)nc2)ccc1=O)N[C@H]1CC12CC2 [Compound I-17, (S)-2-(3-(6-(difluoromethoxy)pyridin-3-yl)-6-oxopyridazin-1(6H)-yl)-N-(spiro[2.2]pentan-1-yl)acetamide] | > 100 | 10 to 100 | – | – | –
COc1ccc(-c2ccc(=O)n(CC(=O)NCc3ccccc3)n2)cc1 [IIIb-20, N-benzyl-2-(3-(4-methoxyphenyl)-6-oxopyridazin-1(6H)-yl)acetamide] | – | – | > 100 | 10 to 100 | –

SMILES | IC50 ([1]; Table 5A) [µM] | IC50 ([2]; Table 4A) [µM] | IC50 ([1]; Table 5C) [µM] | IC50 ([2]; Table 4C) [µM] | further results
COc1ccc(-c2ccc(=O)n(CC(=O)NC3CCCC3)n2)cc1OC [IIIb-45, N-cyclopentyl-2-(3-(3,4-dimethoxyphenyl)-6-oxopyridazin-1(6H)-yl)acetamide] | – | – | > 100 | > 100 | –
CCNC(=O)Cn1nc(-c2ccc(OCC(F)(F)F)nc2)ccc1=O [Compound I-13, N-ethyl-2-(6-oxo-3-(6-(2,2,2-trifluoroethoxy)pyridin-3-yl)pyridazin-1(6H)-yl)acetamide] | > 100 | 10 to 100 | – | – | –
O=C(Cn1nc(-c2ccc(OC(F)F)nc2)ccc1=O)NC12CC(C1)C2 [Compound I-11, N-(bicyclo[1.1.1]pentan-1-yl)-2-(3-(6-(difluoromethoxy)pyridin-3-yl)-6-oxopyridazin-1(6H)-yl)acetamide] | > 100 | 10 to 100 | – | – | –
CC[C@H](C)NC(=O)Cn1nc(-c2ccc(Cl)cc2)ccc1=O [IIIc-30, (S)-N-(sec-butyl)-2-(3-(4-chlorophenyl)-6-oxopyridazin-1(6H)-yl)acetamide] | – | – | > 100 | 10 to 100 | –
COc1ccc(-c2ccc(=O)n(CC(=O)NCc3ccccc3Cl)n2)cc1 [IIIb-1, N-(2-chlorobenzyl)-2-(3-(4-methoxyphenyl)-6-oxopyridazin-1(6H)-yl)acetamide] | – | – | > 100 | < 10 | –
O=C(Cn1nc(-c2ccc(OC(F)F)nc2)ccc1=O)NCc1ccc(Cl)cc1 [Compound I-70, N-(4-chlorobenzyl)-2-(3-(6-(difluoromethoxy)pyridin-3-yl)-6-oxopyridazin-1(6H)-yl)acetamide] | > 100 | < 10 | – | – | –
CCNC(=O)Cn1nc(-c2ccc(OCC3COC3)nc2)ccc1=O [Compound I-22, N-ethyl-2-(3-(6-(oxetan-3-ylmethoxy)pyridin-3-yl)-6-oxopyridazin-1(6H)-yl)acetamide] | > 100 | 10 to 100 | – | – | –
O=C(Cn1nc(-c2ccc(OC(F)F)cc2)ccc1=O)NCC1CCC1 [II-18, N-(cyclobutylmethyl)-2-(3-(4-(difluoromethoxy)phenyl)-6-oxopyridazin-1(6H)-yl)acetamide] | – | – | – | – | IC50 ([1]; Table 5B): > 100 µM; IC50 ([2]; Table 4B): 10 to 100 µM
CCNC(=O)Cn1nc(-c2ccc(N3CC(F)(F)C3)nc2)ccc1=O [Compound I-6, 2-(3-(6-(3,3-difluoroazetidin-1-yl)pyridin-3-yl)-6-oxopyridazin-1(6H)-yl)-N-ethylacetamide] | > 100 | 10 to 100 | – | – | –
COc1ccc(-c2ccc(=O)n(CC(=O)Nc3cc(OC)ccc3OC)n2)cc1 [IIIb-25, N-(2,5-dimethoxyphenyl)-2-(3-(4-methoxyphenyl)-6-oxopyridazin-1(6H)-yl)acetamide] | – | – | > 100 | 10 to 100 | –
O=C(Cn1nc(-c2ccc(Cl)cc2)ccc1=O)Nc1cccc2[nH]ccc12 [IIIc-19, 2-(3-(4-chlorophenyl)-6-oxopyridazin-1(6H)-yl)-N-(1H-indol-4-yl)acetamide] | – | – | > 100 | < 10 | –
Cc1ccc(S(=O)(=O)NCc2ccccc2)cc1 [N-benzyl-p-tolyl-sulfonamide (BTS), N-benzyl-p-tolyl-sulfonamide] | – | – | – | – | protection of muscles from pathological muscle derangement [3]: protect muscles from pathological muscle derangement
COc1ccc(-c2ccc(=O)n(CC(=O)Nc3cccc4[nH]ccc34)n2)cc1 [IIIb-3, N-(1H-indol-4-yl)-2-(3-(4-methoxyphenyl)-6-oxopyridazin-1(6H)-yl)acetamide] | – | – | > 100 | < 10 | –
COc1ccc(-c2ccc(=O)n(CC(=O)NCc3ccccn3)n2)cc1 [IIIa-30, 2-(3-(4-methoxyphenyl)-6-oxopyridazin-1(6H)-yl)-N-(pyridin-2-ylmethyl) acetamide] | – | – | > 100 | > 100 | –
O=C(Cn1nc(-c2ccc(OCC(F)(F)F)cc2)ccc1=O)NCc1ccc[nH]c1=O [II-26, N-((2-oxo-1,2-dihydropyridin-3-yl)methyl)-2-(6-oxo-3-(4-(2,2,2-trifluoroethoxy)phenyl)pyridazin-1(6H)-yl)acetamide] | – | – | – | – | IC50 ([1]; Table 5B): > 100 µM; IC50 ([2]; Table 4B): 10 to 100 µM
CCNC(=O)Cn1nc(-c2ccc(OCCN(C)C)nc2)ccc1=O [Compound I-26, 2-(3-(6-(2-(dimethylamino)ethoxy)pyridin-3-yl)-6-oxopyridazin-1(6H)-yl)-N-ethylacetamide] | > 100 | > 100 | – | – | –
O=C(Cn1nc(-c2ccc(OC(F)F)nc2)ccc1=O)NCc1cccc(Cl)c1 [Compound I-76, N-(3-chlorobenzyl)-2-(3-(6-(difluoromethoxy)pyridin-3-yl)-6-oxopyridazin-1(6H)-yl)acetamide] | > 100 | 10 to 100 | – | – | –

From US12415794B2 (Edgewise Therapeutics, Inc., priority 2018, dated 2025)
